# Data reported in paper PMC8684776, “Discovery and characterization of potent And‐1 inhibitors for cancer treatment” (Clinical and Translational Medicine, 2021).
# What was measured:
# MCF7 xenografts = experiment: MCF7 xenograft in nude mice; assay type: in vivo, mouse
# Procedure: (§1) (A) Tumours of IGROV1 xenograft treated with vehicle or CH3 (20 or 40 mg/kg/3days intraperitoneally) for 3 weeks. Ruler scale is in centimeters. (B) Growth curves of IGROV1 xenografts. Data are represented as means ± SEM. ****p < 0.0001. (C) IHC staining against acidic nucleoplasmic DNA‐binding protein 1 (And‐1) and cleaved‐caspase3 antibodies of tumor samples from 3 groups of mice. Scale bar: 50 μm. Lower panel, quantification of And‐1and cleaved‐caspase 3 IHC score in tumors treated in A. ****p < 0.0001. (D) Tumors of MCF7 xenograft treated with vehicle or CH3 (20 or 40 mg/kg/3days intraperitoneally) for 3 weeks. Ruler scale is in centimeters. (E) Growth curves of MCF7 xenografts. Data are represented as means ± SEM. ****p < 0.0001. (F) IHC staining against And‐1 and cleaved‐caspase3 antibodies of tumor samples from three treated groups of mice. Scale bar: 50 μm. Lower panel, quantification of And‐1and cleaved‐caspase 3 IHC score in tumors treated in (D). *p < 0.1; **p < 0.01; ***p < 0.001; ****p < 0.0001
# (§2) into subsequent experiment groups.
# (§3) represent the longest and shortest diameters, respectively. During the drug treatment, the tumor volume
# (§4) and body weight were measured. […]
# IGROV1 CR cells [1] = experiment: SRB cell viability assay, combination with cisplatin; assay type: cell-based, human; conditions: by combination index (CI < 1 synergism)
# Procedure: The assay was as previously described.[45]
# (§5) Synergy of each combination was indicated as combination index (CI) values. […] (C) Tumors of IGROV1 CR xenograft treated with control (vehicle), cisplatin (8 mg/kg/day intraperitoneally), CH3 (20 mg/kg/3days intraperitoneally), or a combination of CH3 and cisplatin for 3 weeks. Ruler scale is in centimeters. (D) Growth curves of IGROV1 CR xenografts. […] (E) IHC staining against And‐1 antibodies of tumor samples from four treated groups of mice. Scale bar: 50 μm. […] Ruler scale is in centimeters. (G) Growth curves of IGROV1 CR xenografts. […] (H) IHC staining against And‐1 antibodies of tumor samples from four treated groups of mice. Scale bar: 50 μm.
# IGROV1 cells [2] = experiment: Immunofluorescence of CtIP recruitment to micro-irradiation induced DSB sites; assay type: cell-based, human; conditions: 1 µM
# Procedure: (§6) Supplementary Figure S1. Identification of novel And-1 inhibitors. […]
# siAnd-1. S: S phase. (D) Immunofluorescence assay to detect CtIP and γH2AX foci formation after CH3 […]
# IGROV1 cells treated with DMSO, 1 […]
# to immunostain γH2AX and CtIP. For each experiment, 50 cells were counted and the percentage of cells with co-localization of γH2AX and CtIP foci was determined. Data represent means ± SEM from three independent experiments. (E) HR reporter assay to detect HR repair efficiency in cells treated with CH3. […]
# [3] = test system: 60 human tumour cell lines; experiment: NCI-60 one-dose screen, whole panel statistics; assay type: cell-based; conditions: mean growth percentage against all 60 tumor cell lines, 10 μM
# Procedure: The NCI‐60 cell line panel includes 60 human tumour cell lines. The effect of CH3 on tumour cell growth was tested at National Cancer Institute, Developmental Therapeutics Program (NCI‐DTP) by following the protocol as described previously.[47]
# We next evaluate the inhibitory efficacy of CH3 against a panel of 60 human cancer cell lines at the NCI‐DTP. […] To further compare the efficacy of CH3 in the inhibition of NCI 60 cells, we examined the inhibitory effects of CH3 on 60 cells by using five doses of CH3.
# FIGURE 5 The effect of CH3 treatment in the NCI‐60 human tumor cell line panel. (A) Mean graph display of NCI‐60 cell line screening data for CH3. The presented result is a one‐dose mean graph display of NCI‐60 cell line screening data for CH3 at 10 μM. The number reported for the one‐dose assay is growth relative to the no‐drug control. Bars deflecting to the right of the mean indicate relatively high sensitivity, and bars deflecting to the left of the mean indicate relatively low sensitivity to CH3. Experiments were performed at the NCI‐DTP. (B) Dose–response curves of CH3 for breast and ovarian cell lines from NCI‐60 cell line panel. All cells were tested at the NCI‐DTP in the presence of CH3 at five concentrations (0.01 μM, 0.1 μM, 1 μM, 10 μM and 100 μM). […]
# IGROV1 xenografts = experiment: IGROV1 xenograft in nude mice; assay type: in vivo, mouse
# Procedure: as §1, §2, §3, §4
# IGROV1 cells [4] = experiment: HR reporter assay; assay type: cell-based, human; conditions: CH3 2 µM or 4 µM
# Procedure: as §6
# (E) HR reporter assay to detect HR repair efficiency in cells treated with CH3.
# IGROV1 cells treated with DMSO, 2 µM or 4 µM of CH3 were subjected to HR reporter assay and the
# percentage of GFP-positive cells was determined by flow cytometry 48 h after I-SceI plasmid transfection.
# HR efficiency were normalized to those obtained from cells treated with DMSO. Data represent means ±
# SEM from three independent experiments. (F) HR reporter assay to detect HR repair efficiency in cells
# treated with BZA using approaches as in E.
# IGROV1 CR cells [5] = experiment: Clonogenic assay, combination with cisplatin; assay type: cell-based, human
# Procedure: as §5
# [6] = Toxicity evaluation of treated mice (body weight, H&E staining of organs)
# Procedure: To this end, we subcutaneously implanted IGROV1 or MCF7 cells into nude mice to form ovarian or breast tumors, respectively. The mice with these tumors were then treated with vehicle, 20 mg/kg or 40 mg/kg of CH3 via intraperitoneal injection.
# To assess the efficacy of the combination of And‐1 inhibitors and cisplatin in vivo, we treated cisplatin resistant IGROV1 CR xenografts with vehicle, And‐1 inhibitors, cisplatin or a combination of cisplatin and And‐1 inhibitor via intraperitoneal injection.
# week old female BALB/c athymic nude mice (CByJ.Cg-Foxn1nu/J, weighting 20-25g, from the Jackson
# Laboratory) were inoculated subcutaneously by injecting the OC cells, cisplatin resistant OC cells or
# breast cancer cells suspended in 100 µl ice-cold Matrigel/PBS (1:1, V:V; 5 x 10^6/mouse) into the dorsal
# flank of each mouse. When the average tumor volume reached 100-150 mm3, the mice were randomized
# into subsequent experiment groups. For tumors treated with CH3 only, CH3 was given at 0 mg/kg, 20
# mg/kg and 40 mg/kg twice a week for three weeks.
# were then given intraperitoneally at 8 mg/kg, 20 mg/kg and 2 mg/kg respectively twice a week for three
# During the drug treatment, the tumor volume and body weight were measured.
smiles,measurement,setting,value
"OB1OCc2cc(/C=C/c3ccc(Cl)c(Cl)c3)ccc21 [CH3, (E)‐5‐(3,4‐dichlorostyryl)benzo[c][1,2]oxaborol‐1(3H)‐ol]",And‐1 expression in tumor tissues (IHC),MCF7 xenografts; MCF7 xenograft tumors,inhibited And‐1 expression
same,cleaved caspase‐3 expression in tumor tissues (IHC),MCF7 xenografts; MCF7 xenograft tumors,induced the expression of cleaved caspase‐3
same,tumor growth,"MCF7 xenografts; breast MCF7 xenografts, nude mice, 20 mg/kg or 40 mg/kg intraperitoneal, 3 weeks",significantly reduced tumor growth
same,synergy with cisplatin to inhibit cell proliferation,IGROV1 CR cells [1],significant synergy with cisplatin
same,recruitment of CtIP to DSB sites induced by micro‐irradiation,IGROV1 cells [2],significantly decreased
same,Growth Percent (Mean),[3],1.84%
same,And‐1 expression in tumor tissues (IHC),IGROV1 xenografts; IGROV1 xenograft tumors,inhibited And‐1 expression
same,cleaved caspase‐3 expression in tumor tissues (IHC),IGROV1 xenografts; IGROV1 xenograft tumors,induced the expression of cleaved caspase‐3
same,tumor growth,"IGROV1 xenografts; ovarian IGROV1 xenografts, nude mice, 20 mg/kg or 40 mg/kg intraperitoneal, 3 weeks",significantly reduced tumor growth
same,HR efficiency,IGROV1 cells [4],profoundly reduced HR efficiency
same,synergy with cisplatin to reduce clonogenic capacity,IGROV1 CR cells [5],great synergy with cisplatin
same,"toxicity of combination with cisplatin: body weight and organs (heart, liver, kidney, lung)","[6]; IGROV1 CR xenograft mice, cisplatin 8 mg/kg + CH3 20 mg/kg or BZA 2 mg/kg",no obvious systemic toxicity or side effect
same,"toxicity: body weight; H&E staining of heart, liver, kidney and lung","[6]; xenograft mice, CH3 20 or 40 mg/kg intraperitoneal",did not observe systemic toxicity or obvious side effects
